# How the values were obtained:
# E. coli K12 NBRC3301 [1] = type: cell-based, Escherichia coli
# E. coli K-12 (NBRC3993) = conditions: additive (mg/mL as printed in the row) to S(−)fa medium, 37° C.
# E. coli K12NBRC3301 = test: S starvation, adaptation culture with dSi and elementary analysis of cells by ICP-MS (Example 16); type: cell-based, Escherichia coli
# B. subtilis NBRC13719 = type: cell-based, Bacillus subtilis; conditions: Glc(1) + Yex (0.5); day 5
# [2] = tested on: B. subtilis Marburg NBRC13719; test: Growth and Si content of acetone-treated cells by ICP/MS (Example 4); type: cell-based, Bacillus subtilis; conditions: for D 1 OD 660 nm: 22 hours; for D1ACW: acetone-treated dried cells
# E. coli K12 NBRC 3301 = test: as above; type: cell-based, Escherichia coli; conditions: lac 1 + compound 5
# E. coli K12 NBRC3301 [3] = conditions: C(αC)Y medium, FIG. 1
# S. cerevisiae NBRC0268 = test: Growth and Si content of acetone-treated cells by ICP/MS (Example 4); type: cell-based, Saccharomyces cerevisiae; conditions: lac 3 + compound 5
# E. coli K12 NBRC3301 [4] = test: Growth and adaptation culture in C(αC+X)Y medium with mmSi (Example 2, FIG. 2); type: cell-based, Escherichia coli
# Experimental: A C source-limited medium (C(αC) medium) was prepared by adding a limited amount of lactate Na as C source (denoted as “αC”) to a C source-deleted C (−) medium. Escherichia coli growth was then examined using a C(αC+X) medium prepared by adding a methyl group-containing organic silicon compound mmSi (methyltrimethoxysilane (see Tables 2 and 3 for abbreviations for the compound)) to the C(αC) medium as a C source substitute compound; that is, an X-containing compound. Moreover, the effects resulting from adaptation culture were examined (specifically, after completion of the 1st (T1) culture, 2nd subculture (T2) was started in a medium of the same composition).
# C source substitute compound: X: mmSi (methyltrimethoxysilane). Culture conditions: 100 mL/Erlenmeyer flask; 33° C.; and 130 rpm. At the time of completion of the 1st culture of, a portion of the culture fluid was pipetted off. Cells were washed by centrifugation and then seeded in a medium of the same composition. The OD value at the initiation of the subculture was adjusted to be close to the initial OD value of the 1st culture generation.
# In a manner similar to that in Example 1, E. coli K12 starter cells were grown in a GY medium, cells were washed, and then subjected to C source starvation culture. The resulting cells were seeded as starter cells in a medium. On day 2, the 1st culture (denoted as “T1d2” in FIG. 2) cells were washed and then the cells were seeded as starter cells in a medium of the same composition for 2nd subculture for adaptation. On day 2 of the 2nd subculture (T2d2), the growth was measured.
# [5] = lac 2 mg/mL + Y 0.5 mg/mL, FIG. 2
# [6] = S(dSi)fa medium, d 3, mean of 2 to 3 flasks
compound,measurement,setting,value
"O=BOB(O)OB(O)OB=O [BB, Borax or sodium borate]",colony count and OD value compared with medium with only limited C source,E. coli K12 NBRC3301 [1]; C source substitute compound,increased
same,OD 660 nm (d5),"E. coli K12 NBRC3301 [1]; Lac (2) + Y, X (10), day 5",1.59
N[C@@H](CS)C(=O)O [L-cysteine],Amount of E. coli K12NBRC3993 growth OD660 × 10 d (cultured for 1 day),E. coli K-12 (NBRC3993),0.240
"O=S(=O)([O-])[O-].[Na+].[Na+] [Sodium sulfate, Sodium sulfate, anhydrous, reference compound]",Amount of E. coli K12NBRC3993 growth OD660 × 10 d (cultured for 1 day),E. coli K-12 (NBRC3993),0.144
same,OD 660 nm,"E. coli K12NBRC3301; test 2, S(−)fa + Na2SO4 (0.2 mg/mL), d3",200 (OD 4.2)
"CCO[Si](C)(C)OCC [emSi, Diethoxydimethylsilane]",OD 660 nm (d5),B. subtilis NBRC13719,6.69
same,D 1 OD 660 nm,[2]; lac 1 + compound 5,2.48
same,D1ACW,[2]; lac 1 + compound 5,289 mg/100 mL
same,D 1 OD 660 nm,E. coli K12 NBRC 3301; 22 hours,1.79
same,D1ACW,E. coli K12 NBRC 3301; acetone-treated dried cells,203 mg/100 mL
CCO [ethanol],"OD with ethanol equimolar to the ethyl group in emSi, compared with emSi",E. coli K12 NBRC3301 [3],lower than that of emSi
"CO[Si](C)(OC)OC [mmSi, Methyltrimethoxysilane]",D 1 OD 660 nm,[2]; lac 3 + compound 5,2
same,D1ACW,[2]; lac 3 + compound 5,309 mg/100 mL
same,D 1 OD 660 nm,S. cerevisiae NBRC0268; 22 hours,3.14
same,D1ACW,S. cerevisiae NBRC0268; acetone-treated dried cells,274 mg/100 mL
same,amount of growth in 2nd subculture versus 1st subculture,"E. coli K12 NBRC3301 [4]; adaptation culture, T2d2 vs T1d2",higher than that of the 1st subculture
same,OD value compared with control (only limited amount of C source),E. coli K12 NBRC3301 [4]; [5],increased
same,dose dependence of increases in OD value,E. coli K12 NBRC3301 [4]; [5],in a dose-dependent manner
same,growth on the compound alone,E. coli K12 NBRC3301 [4]; no limited C source (rightmost in FIG. 2),did not grow
Sodium disilicate [dSi],OD 660 nm at end of 4th subculture of adaptation culture,E. coli K12NBRC3301; [6],1.93
same,OD 660 nm at end of 5th subculture of adaptation culture,E. coli K12NBRC3301; [6],3.22
same,OD 660 nm at end of 3rd subculture of adaptation culture,"E. coli K12NBRC3301; S(dSi)fa medium, d 7, mean of 2 to 3 flasks",1.91
same,OD 660 nm at end of 2nd subculture of adaptation culture,"E. coli K12NBRC3301; S(dSi)fa medium, d 9, mean of 2 to 3 flasks",2.00
same,OD 660 nm at end of 1st subculture of adaptation culture,"E. coli K12NBRC3301; S(dSi)fa medium, d 13, mean of 2 to 3 flasks",2.13
same,OD 660 nm,"E. coli K12NBRC3301; test 3, S(−)fa + Na2SO4 (0.02) + dSi (0.4 mg/mL), d3",170 (OD 6.0)
same,OD 660 nm,"E. coli K12NBRC3301; test 4, S(−)fa + dSi (0.4 mg/mL), no S source, d4",190 (OD 3.0)
